According to patent publication US8138183B2, “Morpholino pyrimidine derivatives used in diseases linked to mTOR kinase and/or PI3K” (AstraZeneca AB, priority 2007, dated 2012):
Like-named read-outs stand apart in the source and are kept apart here.

System: phosphorylation of Serine 473 in Akt
Experiment: In Vitro phospho-Ser473 Akt Assay, Test (c)
Type: cell-based
Settings: MDA-MB-468 human breast adenocarcinoma cells, measured on two occasions, read-out: IC50 versus Serine 473 in Akt
Procedure: (c) In Vitro phospho-Ser473 Akt Assay
This assay determines the ability of test compounds to inhibit phosphorylation of Serine 473 in Akt as assessed using Acumen Explorer technology (Acumen Bioscience Limited), a plate reader that can be used to rapidly quantitate features of images generated by laser-scanning.
A MDA-MB-468 human breast adenocarcinoma cell line (LGC Promochem, Teddington, Middlesex, UK, Catalogue No. HTB-132) was routinely maintained at 37° C. with 5% CO2 up to a confluency of 70-90% in DMEM containing 10% heat-inactivated FCS and 1% L-glutamine.
For the assay, the cells were detached from the culture flask using ‘Accutase’ (Innovative Cell Technologies Inc., San Diego, Calif., USA; Catalogue No. AT104) using standard tissue culture methods and resuspended in media to give 1.7×10^5 cells per mL. […]
All subsequent aspiration and wash steps were carried out using a Tecan 96 well plate washer (aspiration speed 10 mm/sec). […] An aliquot of PBS (50 μl) was added to each well and the plates were sealed with black plate sealers and the fluorescence signal was detected and analysed.
Fluorescence dose response data obtained with each compound were analysed and the degree of inhibition of Serine 473 in Akt was expressed as an IC50 value.

IC50 (Homo sapiens, MDA-MB-468, Test (c)): 1930 nM
IC50 (Test (c)): 1740 nM
SMILES: C[C@H]1COCCN1c1cc(CS(C)(=O)=O)nc(-c2ccc(NC(=S)Nc3ccccc3)cc2)n1 [Example 1b, 1-[4-[4-[(3S)-3-methylmorpholin-4-yl]-6-(methylsulfonylmethyl)pyrimidin-2-yl]phenyl]-3-phenyl-thiourea]
